Data reported in patent US8288371B2, “Ortho pyrrolidine, benzyl-substituted heterocycle CCR1 antagonists for autoimmune diseases and inflammation” (Pharmacopeia, LLC, priority 2007, dated 2012).

Target: T1, human CCR1 (Homo sapiens, UniProt P32246)
T1 sequence (P32246 1-355): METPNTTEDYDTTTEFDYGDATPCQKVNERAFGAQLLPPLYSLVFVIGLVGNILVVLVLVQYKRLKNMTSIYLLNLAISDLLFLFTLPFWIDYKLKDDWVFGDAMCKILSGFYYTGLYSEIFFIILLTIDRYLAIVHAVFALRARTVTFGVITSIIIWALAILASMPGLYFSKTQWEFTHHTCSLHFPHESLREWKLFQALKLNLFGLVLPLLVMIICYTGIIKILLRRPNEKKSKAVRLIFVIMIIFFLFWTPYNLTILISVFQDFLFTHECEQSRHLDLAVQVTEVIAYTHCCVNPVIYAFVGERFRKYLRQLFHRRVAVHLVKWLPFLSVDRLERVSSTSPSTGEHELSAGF
Test: CCR1 binding protocol (SPA, [125I]-MIP-1α displacement)
Conditions: cell membrane expressing human CCR1, 0.1 nM [125I]-MIP-1α, 4 hours at ambient temperature; read-out: Relative potency (IC50)
In short: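 Human CCR1 membranes (0.5 μg/well) on SPA beads were incubated with compound and 0.1 nM [125I]-MIP-1α (final) for 4 h at ambient temperature. Buffer was Tris pH 7.4 with NaCl, KCl, MnCl and 0.1% BSA. IC50 came from ½-log compound dilutions (10 mM top DMSO stock) by displacement of bound radioligand.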

Cc1nnc([C@H]2CCCN2C(=O)N[C@H]2CCOc3c(F)cccc32)n1Cc1ccc(Cl)cc1 [Compound 149] and Cc1nnc([C@H]2CCCN2C(=O)N[C@H]2CCOc3cc(C(F)(F)F)ccc32)n1Cc1ccc(F)cc1 [Compound 411] cannot be ordered by IC50: less than 50 nM for the first, less than 50 nM for the second.

First: Cc1nnc([C@H]2C[C@@H](O)CN2C(=O)N[C@H]2CCOc3cc(C#N)ccc32)n1Cc1ccc(Cl)cc1 [Compound 522]
Second: Cc1nnc(C2C3CC3CN2C(=O)N[C@H]2CCOc3cc(C(F)(F)F)ccc32)n1Cc1ccc(Cl)cc1 (some centres unmarked) [Compound 546]
The IC50 of the first is lower: less than 50 nM for the first, 50 to 500 nM for the second.

First: Cc1nnc([C@H]2CC(F)CN2C(=O)Nc2ccc(Cl)cc2F)n1Cc1ccc(Cl)cc1 (some centres unmarked) [Compound 571]
Second: Cc1nnc([C@H]2C[C@H](O)CN2C(=O)Nc2ccc(Cl)cc2F)n1Cc1ccc(Cl)cc1 [Compound 435]
The IC50 of the first is higher: 50 to 500 nM for the first, less than 50 nM for the second. The second is the more potent here.

Compared with O=C(NCc1ccc(C(F)(F)F)cc1)N1CCC[C@@H]1c1nnc(CO)n1Cc1ccc(Cl)cc1 [Compound 312], Cc1nnc([C@H]2CCCN2C(=O)NCc2ccc(F)cc2)n1Cc1ccc(Cl)cc1 [Compound 228] is higher in IC50: less than 50 nM for the first, 50 to 500 nM for the second. The first is the more potent here.

O=C(NC(c1ccccc1)c1ccccc1)N1C[C@H](O)C[C@@H]1c1nncn1Cc1ccc(Cl)cc1 [Compound 476] and CC(=O)O[C@@H]1C[C@H](c2nncn2Cc2ccc(Cl)cc2)N(C(=O)NC(c2ccccc2)c2ccccc2)C1 [Compound 478] fall in the same range of IC50: 50 to 500 nM for the first, 50 to 500 nM for the second.

Compared with Cc1nnc([C@H]2CC(F)CN2C(=O)Nc2ccc(Cl)c(C(F)(F)F)c2)n1Cc1ccc(Cl)cc1 (some centres unmarked) [Compound 572], Cc1nnc([C@H]2CC(F)CN2C(=O)NCc2ccc(Cl)c(Cl)c2)n1Cc1ccc(Cl)cc1 (some centres unmarked) [Compound 570] is lower in IC50: 50 to 500 nM for the first, less than 50 nM for the second.

O=C(Nc1ccc(C(F)(F)F)cc1)N1CCC[C@@H]1c1nccn1Cc1ccc(Cl)cc1 [Compound 38] and N#C/N=C(\Nc1ccc(C(F)(F)F)cc1)N1CCC[C@@H]1c1nccn1Cc1ccc(Cl)cc1 [Compound 42] fall in the same range of IC50: 50 to 500 nM for the first, 50 to 500 nM for the second.

Compared with Cc1nnc([C@H]2CCCN2C(=O)N[C@H](C)c2nc3ccccc3o2)n1Cc1ccc(Cl)cc1 [Compound 513], Cc1ccc([C@H](C)NC(=O)N2CCC[C@@H]2c2nnc(C)n2Cc2ccc(Cl)cc2)c(C)n1 [Compound 626] is higher in IC50: less than 50 nM for the first, 50 to 500 nM for the second. The first is the more potent here.

Compared with Cc1nnc([C@H]2CCCN2C(=O)Nc2ccc(S(C)(=O)=O)cc2)n1Cc1ccc(Cl)cc1 [Compound 330], Cc1nnc([C@H]2CCCN2C(=O)Nc2ccc(S(=O)(=O)N(C)C)cc2Cl)n1Cc1ccc(Cl)cc1 [Compound 451] is lower in IC50: 50 to 500 nM for the first, less than 50 nM for the second.

Cc1nnc([C@H]2CCCN2C(=O)Cc2ccc(Cl)cc2)n1Cc1ccc(Cl)cc1 [Compound 174] and Cc1nnc([C@H]2CCCN2C(=O)Nc2cc(-c3ccc(Cl)cc3)nn2C)n1Cc1ccc(Cl)cc1 [Compound 595] fall in the same range of IC50: 50 to 500 nM for the first, 50 to 500 nM for the second.

Cc1nnc([C@H]2CCCN2C(=O)Nc2cc(C(F)(F)F)ccc2S(C)(=O)=O)n1Cc1ccc(Cl)cc1 [Compound 423] and Cc1nnc([C@H]2CCCN2C(=O)Nc2cc(C(N)=O)ccc2C(F)(F)F)n1Cc1ccc(Cl)cc1 [Compound 358] fall in the same range of IC50: 50 to 500 nM for the first, 50 to 500 nM for the second.

First: Cc1noc(C)c1CC(=O)N1CCC[C@@H]1c1ncnn1Cc1ccc(Cl)cc1 [Compound 631]
Second: Cc1noc(-c2ccccc2)c1NC(=O)N1CCC[C@@H]1c1ncnn1Cc1ccc(Cl)cc1 [Compound 60]
The IC50 of the first is higher: 500 to 5000 nM for the first, less than 50 nM for the second. The second is the more potent here.

Compared with Cc1nnc([C@H]2CCCN2C(=O)Nc2ccc(Cl)cc2F)n1Cc1ccc(Cl)c(Cl)c1 [Compound 384], Cc1nnc([C@H]2CCCN2C(=O)Nc2ccc(Br)cc2F)n1Cc1ccc(Cl)cc1 [Compound 418] is lower in IC50: 50 to 500 nM for the first, less than 50 nM for the second.

Cc1onc(-c2ccccc2)c1NC(=O)N1CCC[C@@H]1c1ncnn1Cc1ccc(Cl)cc1 [Compound 62] and Cc1onc(-c2ccccc2Cl)c1NC(=O)N1CCC[C@@H]1c1nnc(C)n1Cc1ccc(Cl)cc1 [Compound 276] cannot be ordered by IC50: less than 50 nM for the first, less than 50 nM for the second.

CC[C@H](NC(=O)N1CCC[C@@H]1c1nnc(C)n1Cc1ccc(Br)cc1)c1cc2ccccc2o1 [Compound 585] and CC[C@H](NC(=O)N1CCC[C@@H]1c1nnc(C)n1Cc1ccc(F)cc1)c1cc2ccccc2o1 [Compound 586] cannot be ordered by IC50: less than 50 nM for the first, less than 50 nM for the second.

Cc1nnc([C@H]2C[C@@H](O)CN2C(=O)NC2(c3ccc(C(F)(F)F)cc3)CC2)n1Cc1ccc(Cl)cc1 [Compound 387] and Cc1nnc([C@H]2C[C@H](O)CN2C(=O)NC2(c3ccc(C(F)(F)F)cc3)CC2)n1Cc1ccc(Cl)cc1 [Compound 436] cannot be ordered by IC50: less than 50 nM for the first, less than 50 nM for the second.

Cc1nnc([C@H]2CCCN2C(=O)Nc2ccc3nonc3c2)n1Cc1ccc(Cl)cc1 [Compound 321] and O=C(Nc1ccc2nonc2c1)N1CCC[C@@H]1c1ncnn1Cc1ccc(Cl)cc1 [Compound 71] fall in the same range of IC50: 50 to 500 nM for the first, 50 to 500 nM for the second.

Cc1nnc([C@H]2CCCN2C(=O)Nc2c(F)cc(Cl)cc2F)n1Cc1ccc(Cl)cc1 [Compound 429] and Cc1nnc([C@H]2CCCN2C(=S)Nc2ccc(Cl)cc2F)n1Cc1ccc(Cl)cc1 [Compound 606] cannot be ordered by IC50: less than 50 nM for the first, less than 50 nM for the second.

Compared with CC[C@@H](NC(=O)N1C[C@H](O)C[C@@H]1c1nnc(C)n1Cc1ccc(Cl)cc1)c1ccc(C)o1 [Compound 501], Cc1nnc([C@H]2C[C@@H](O)CN2C(=O)Nc2ccc(Cl)cc2F)n1Cc1ccc(Cl)cc1 [Compound 390] is higher in IC50: 50 to 500 nM for the first, 500 to 5000 nM for the second. The first is the more potent here.

Cc1noc(C)c1NC(=O)N1CCC[C@@H]1c1nnc(Cl)n1Cc1ccc(Cl)cc1 [Compound 259] and Cc1nc(Cl)c(NC(=O)N2CCC[C@@H]2c2nnc(C)n2Cc2ccc(Cl)cc2)c(Cl)n1 [Compound 178] cannot be ordered by IC50: less than 50 nM for the first, less than 50 nM for the second.

O=C(Nc1ccc(C(F)(F)F)cc1)N1CCC[C@@H]1c1nncn1Cc1ccc(Cl)cc1 [Compound 108] and Cc1cc(C(F)(F)F)ccc1NC(=O)N1CCC[C@@H]1c1nncn1Cc1ccc(Cl)cc1 [Compound 104] cannot be ordered by IC50: less than 50 nM for the first, less than 50 nM for the second.

Compared with Cc1noc(-c2ccccc2)c1NC(=O)N1CC(F)C[C@@H]1c1nnc(C)n1Cc1ccc(Cl)cc1 (some centres unmarked) [Compound 573], Cc1cccc(C)c1NC(=O)N1CCC[C@@H]1c1nnc(C)n1Cc1ccc(Cl)cc1 [Compound 158] is higher in IC50: less than 50 nM for the first, 50 to 500 nM for the second.

CC(=O)O[C@@H]1C[C@H](c2ncnn2Cc2ccc(Cl)cc2)N(C(=O)N[C@H]2CCOc3cc(C(F)(F)F)ccc32)C1 [Compound 488] and O=C(NC1CCCOc2ccccc21)N1CCC[C@@H]1c1ncnn1Cc1ccc(Cl)cc1 (some centres unmarked) [Compound 89] cannot be ordered by IC50: less than 50 nM for the first, less than 50 nM for the second.

Compared with Cc1nnc([C@H]2CCCN2C(=O)Nc2cc(C(N)=O)ccc2Cl)n1Cc1ccc(Cl)cc1 [Compound 332], Cc1nnc([C@H]2CCCN2C(=O)Nc2cc(C(=O)O)ccc2Cl)n1Cc1ccc(Cl)cc1 [Compound 298] is higher in IC50: 50 to 500 nM for the first, 500 to 5000 nM for the second. The first is the more potent here.

CC[C@H](Nc1c(N2CCC[C@@H]2c2nnc(C)n2Cc2ccc(Cl)cc2)c(=O)c1=O)c1ccc(C(F)(F)F)nc1 [Compound 562] and Cc1nnc([C@H]2CCCN2C(=O)Nc2ccc(C(F)(F)F)nc2)n1Cc1ccc(Cl)cc1 [Compound 633] fall in the same range of IC50: 50 to 500 nM for the first, 50 to 500 nM for the second.

O=C(NC1CCS(=O)(=O)c2ccccc21)N1CCC[C@@H]1c1nncn1Cc1ccc(Cl)cc1 (some centres unmarked) [Compound 110] and Cc1nnc([C@H]2CCCN2C(=O)N[C@H]2CCS(=O)(=O)c3ccc(Cl)cc32)n1Cc1ccc(Cl)cc1 [Compound 369] cannot be ordered by IC50: less than 50 nM for the first, less than 50 nM for the second.

Cc1nnc([C@H]2CCCN2C(=O)Nc2ccc(C#N)cc2F)n1Cc1ccc(Cl)cc1 [Compound 454] and Cc1nnc([C@H]2CCCN2/C(=N/C#N)Nc2ccc(Cl)cc2F)n1Cc1ccc(Cl)cc1 [Compound 529] fall in the same range of IC50: 50 to 500 nM for the first, 50 to 500 nM for the second.

Cc1nc(C(F)(F)F)ccc1NC(=O)N1CCC[C@@H]1c1nnsc1Cc1ccc(Cl)cc1 [Compound 632] and Cc1nc(C(F)(F)F)ccc1NC(=S)N1CCC[C@@H]1c1nnc(C)n1Cc1ccc(Cl)cc1 [Compound 607] cannot be ordered by IC50: less than 50 nM for the first, less than 50 nM for the second.

COC(=O)c1ccc(C(F)(F)F)c(NC(=O)N2CCC[C@@H]2c2nnc(C)n2Cc2ccc(Cl)cc2)c1 [Compound 317] and Cc1nnc([C@H]2CCCN2C(=O)Nc2ccccc2C(F)(F)F)n1Cc1ccc(Cl)cc1 [Compound 146] fall in the same range of IC50: 50 to 500 nM for the first, 50 to 500 nM for the second.

Compared with Cn1ncc(Cc2ccc(Cl)cc2)c1[C@H]1CCCN1C(=O)Nc1ccc(C(F)(F)F)cc1 [Compound 11], O=C(Nc1ccc(SC(F)(F)F)cc1)N1CCC[C@@H]1c1ncnn1Cc1ccc(Cl)cc1 [Compound 74] is lower in IC50: 500 to 5000 nM for the first, 50 to 500 nM for the second. The second is the more potent here.

Compared with O=C(Nc1ccc(C(F)(F)F)cc1)N1CCC[C@@H]1c1nccn1Cc1ccccc1 [Compound 47], CSc1ccc(NC(=O)N2CCC[C@@H]2c2nccn2Cc2ccc(Cl)cc2)cc1 [Compound 37] is lower in IC50: 500 to 5000 nM for the first, less than 50 nM for the second. The second is the more potent here.

Cc1nnc([C@H]2CCCN2/C(=N/C#N)NCc2ccc(Cl)cc2Cl)n1Cc1ccc(Cl)cc1 [Compound 420] and Cc1nnc([C@H]2CCCN2C(=O)Nc2ccc3occc3c2)n1Cc1ccc(Cl)cc1 [Compound 122] fall in the same range of IC50: 50 to 500 nM for the first, 50 to 500 nM for the second.

First: Cc1cc(C)c(S(=O)(=O)N(C)C)cc1Nc1c(N2CCC[C@@H]2c2nnc(C)n2Cc2ccc(Cl)cc2)c(=O)c1=O [Compound 609]
Second: CCc1cc(Cn2c(C)nnc2[C@H]2CCCN2C(=O)Nc2ccc(C(F)(F)F)nc2C)ccc1Cl [Compound 634]
The IC50 of the first is higher: 50 to 500 nM for the first, less than 50 nM for the second.

First: Cc1nnc([C@H]2CCCN2C(=O)Nc2ccc(-c3ncccn3)cc2)n1Cc1ccc(Cl)cc1 [Compound 550]
Second: Cc1cc(Cl)cc(C)c1NC(=O)N1CCC[C@@H]1c1ncncc1Cc1ccc(Cl)cc1 [Compound 13]
The IC50 of the first is higher: 500 to 5000 nM for the first, less than 50 nM for the second.
